Laboratory results taken from ChEMBL document CHEMBL1141399, “Synthesis and evaluation of isomeric (17alpha,20E)-11beta-methoxy-21-(trifluoromethylphenyl)-19-norpregna-1,3,5(10),20-tetraene-3,17beta-diols as ERalpha-hormone binding domain ligands: effect of the methoxy group on receptor binding and uterotrophic growth” (J Med Chem, 2007).
Activity calls are given as the source filed them. The rule behind the calls is not given here.

What follows are molecules tested against T1, Estrogen receptor (Homo sapiens) (UniProt P03372) (assay: Displacement of [3H]estradiol from ERalpha isolated from BL21 cells relative to estradiol at 25 degC).
T1 sequence (whole entry): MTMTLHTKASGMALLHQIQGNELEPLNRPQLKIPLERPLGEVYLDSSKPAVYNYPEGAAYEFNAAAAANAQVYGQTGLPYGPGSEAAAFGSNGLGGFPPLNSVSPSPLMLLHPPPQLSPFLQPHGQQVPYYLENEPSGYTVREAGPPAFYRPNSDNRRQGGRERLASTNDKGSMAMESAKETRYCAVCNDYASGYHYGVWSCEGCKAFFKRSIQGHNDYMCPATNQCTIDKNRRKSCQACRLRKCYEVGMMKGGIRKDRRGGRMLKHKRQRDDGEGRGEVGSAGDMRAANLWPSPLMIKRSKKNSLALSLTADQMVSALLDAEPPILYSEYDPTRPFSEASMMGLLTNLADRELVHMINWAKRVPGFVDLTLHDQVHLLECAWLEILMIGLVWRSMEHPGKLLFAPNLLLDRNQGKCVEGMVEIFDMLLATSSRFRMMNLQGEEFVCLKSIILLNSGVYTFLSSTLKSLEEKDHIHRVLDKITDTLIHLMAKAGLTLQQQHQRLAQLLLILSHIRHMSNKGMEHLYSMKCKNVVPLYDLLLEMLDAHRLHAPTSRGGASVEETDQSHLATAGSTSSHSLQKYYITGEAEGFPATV
Assay type: cell-free

SMILES	RBA
C[C@]12CC[C@@H]3c4ccc(O)cc4CC[C@H]3[C@@H]1CC[C@@]2(O)/C=C/c1ccccc1C(F)(F)F	223
CO[C@H]1C[C@@]2(C)[C@@H](CC[C@@]2(O)/C=C/c2ccccc2)[C@@H]2CCc3cc(O)ccc3[C@H]21	15
CO[C@H]1C[C@@]2(C)[C@@H](CC[C@@]2(O)/C=C/c2ccccc2C(F)(F)F)[C@@H]2CCc3cc(O)ccc3[C@H]21	212
C[C@]12CC[C@@H]3c4ccc(O)cc4CC[C@H]3[C@@H]1CC[C@@]2(O)/C=C/c1ccccc1	18
CO[C@H]1C[C@@]2(C)[C@@H](CC[C@@]2(O)/C=C/c2cccc(C(F)(F)F)c2)[C@@H]2CCc3cc(O)ccc3[C@H]21	65
C[C@]12CC[C@@H]3c4ccc(O)cc4CC[C@H]3[C@@H]1CC[C@@]2(O)/C=C/c1cccc(C(F)(F)F)c1	75
CO[C@H]1C[C@@]2(C)[C@@H](CC[C@@]2(O)/C=C/c2ccc(C(F)(F)F)cc2)[C@@H]2CCc3cc(O)ccc3[C@H]21	5
C[C@]12CC[C@@H]3c4ccc(O)cc4CC[C@H]3[C@@H]1CC[C@@]2(O)/C=C/c1ccc(C(F)(F)F)cc1	8

Species: Rattus norvegicus
Assay: Estrogenic efficacy in rat by immature rat uterotrophic growth assay
Assay type: functional, organism-based

SMILES	Activity
C[C@]12CC[C@@H]3c4ccc(O)cc4CC[C@H]3[C@@H]1CC[C@@]2(O)/C=C/c1ccccc1	inactive
